The target of series [1] is T1, Glutathione-S-transferase-labeled FXR human protein (Homo sapiens, UniProt Q96RI1).
T1 construct: purchased Invitrogen
T1 sequence (Q96RI1 1-486): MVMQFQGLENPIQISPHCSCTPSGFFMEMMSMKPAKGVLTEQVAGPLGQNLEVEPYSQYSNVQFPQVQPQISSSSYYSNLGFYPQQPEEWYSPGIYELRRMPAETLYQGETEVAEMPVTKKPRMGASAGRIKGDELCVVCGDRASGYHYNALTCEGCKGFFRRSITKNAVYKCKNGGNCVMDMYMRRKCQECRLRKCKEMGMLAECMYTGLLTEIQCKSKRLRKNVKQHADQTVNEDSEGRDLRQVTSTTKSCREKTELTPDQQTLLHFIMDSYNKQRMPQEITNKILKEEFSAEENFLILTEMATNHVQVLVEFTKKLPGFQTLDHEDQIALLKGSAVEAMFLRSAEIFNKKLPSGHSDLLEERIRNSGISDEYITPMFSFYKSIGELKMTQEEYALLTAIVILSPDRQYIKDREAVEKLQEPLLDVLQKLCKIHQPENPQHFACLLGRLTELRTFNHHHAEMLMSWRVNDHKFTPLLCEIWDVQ
In words: FXR biochemical experiment (AlphaScreen, coactivator recruitment). The following applies: for EC50: AlphaScreen, GST-FXR human protein + biotin-labeled steroid receptor coactivator, read-out: FXR enzyme activity EC50; for Emax: ratio of highest signal of the compound to that of the reference compound, read-out: FXR enzyme activity Efficacy. The protocol:
FXR Biochemical Experiment Experimental Purpose: The activation effect of the compound on FXR binding reaction was detected by AlphaScreen. […] Protein: Glutathione-S-transferase-labeled FXR human protein (Invitrogen) 2. Co-activator: Biotin-labeled steroid receptor coactivator (Anaspec) 3. […] Compound Dilution: The compound to be tested was prepared as a 40 μM DMSO solution, and then diluted 3-fold to 10 concentration points. The reference compound was prepared as a 400 μM DMSO solution, and then diluted 1.5-fold to 10 concentration points. The diluted DMSO solution was added to the wells of a 384-well plate in a volume of 150 nL per well. 2. […] 4. […] The operation during the experimental process was protected from light. The incubation was performed for 1 hour at room temperature. 5. […] The operation during the experimental process was protected from light. The incubation was performed for 1 hour at room temperature. 6. EC50 test: Envision was used with excitation at 680 nm to read the […] signals at 520-620 nm. 7. Analytical data: The data were analyzed via using Prism 5.0, and the EC50 values of the activation effects of the compounds were calculated.

Series [2] addresses T2, FXR (FXR HEK 293T DA cell line) (Homo sapiens, UniProt Q96RI1).
T2 construct: expressed in transfected cells; host or cells: HEK 293T (FXR HEK 293T DA)
In words: FXR cell experiment (β-lactamase reporter gene, GeneBLAzer).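 As to FXR cell activity Efficacy: Emax relative to maximal signal of reference agonist chenodeoxycholic acid (CDCA).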 It counts as cell-based. The following applies: for EC50: FXR HEK 293T DA cells, β-lactamase reporter, 16 hours; for Emax: HEK-293T, read-out: FXR cell activity Efficacy. The protocol: Compound Dilution: The compound to be tested was prepared as a 100 μM DMSO solution, and then the compound was diluted 3-fold to 10 concentration points. The reference compound was prepared as a 100 μM DMSO solution, and then diluted 1.3-fold to 10 concentration points. The diluted DMSO solution was added to the wells of a 384-well plate in a volume of 200 nL per well. 2. […] The 384-well microplate was incubated at 37° C., 5% CO2 for 16 hours. 4. 6 μL of 1 mM LiveBLAzer™-FRET B/G (CCF4-AM) substrate was mixed with 60 μL of B solution and 934 μL of C solution, and added to the wells of the 384-well plate in a volume of 8 μL per well. […] The 384-well microplate was incubated in dark for 2 hours at room temperature. 6. […] 7.

Series [3] in a line: Pharmacokinetics in mice administrated with single compound. It counts as in vivo, mice (C57BL/6J). As to conditions: for drug exposure compared with control compound INT-747 / peak concentration compared with control compound INT-747: mice, oral administration at the same dosage. The method, then: Pharmacokinetics in Mice Administrated with Single Compound:
12 male mice (C57BL/6J) were randomly divided into two groups, i.e., 6 mice per group. […] Plasma (using K2-EDTA as anticoagulant) samples were taken at 0.083, 0.25, 0.5, 1, 2, 4, 6, 8 and 24 hours in the intravenous administration group after administration; and plasma samples were taken at 0.25, 0.5, 1, 2, 4, 6, 8 and 24 hours in the oral administration group after administration. For 6 animals in each group, blood samples were collected for 3 animals at one time point. The first batch of 3 animals was alternately sampled with the second batch of 3 animals. Plasma sample analysis was performed by using LC-MS/MS. The resultant plasma concentrations were plotted with repect to time, and PK parameters were calculated by using Phoenix WinNonlin 6.3.

Series [4] can be described thus: Liver-blood ratio experiment of mice via cassette dosing. It counts as in vivo, mice (C57BL/6J). The following applies: for Concentration in liver / Concentration in plasma / Concentration ratio of liver to plasma: oral cassette 2 mg/kg. The protocol:
Liver-Blood Ratio Experiment of Mice Via Cassette Dosing
6 male mice (C57BL/6J) were grouped as an oral administration group. 5 kinds of the developed drugs were contained in the formulation, and intragastrical administration was performed at a dose of 2 mg/kg/compound (the vehicle was 0.5% HPMC aqueous solution). The five compounds were firstly and respectively dissolved in the vehicle, and sonicated or whirled to form a 1 mg/mL solution (clear solution or suspension), respectively; and then the solutions of the five compound were mixed in equal volumes (1:1:1:1:1, v:v:v:v:v) into a glass bottle. After intragastrical oral administration, plasma and liver tissue samples were collected from 3 animals at 0.5 h after administration; corresponding samples were collected from the other 3 animals at 3 h after administration. After collection, the liver tissue was homogenized by using ice-cold homogenization buffer (methanol:15 mM PBS buffer (pH 7.4)=1:2, v:v) based on the ratio of liver weight:homogenization buffer volume=1:3. Plasma and liver tissue samples were analyzed by using a five-in-one LC-MS/MS analysis method developed in advance. The concentrations of plasma and liver tissue homogenate were obtained, and the concentration ratios of liver tissue to plasma were calculated by using Excel.

[5] abbreviates: mouse, plasma, male C57BL/6J mice, oral 10 mg/kg.
The mark [6] stands for this setting: oral, same dosage, at 0.5 h and 3 h.

T2 sequence (Q96RI1 with tags, fused parts or gaps limits assumed): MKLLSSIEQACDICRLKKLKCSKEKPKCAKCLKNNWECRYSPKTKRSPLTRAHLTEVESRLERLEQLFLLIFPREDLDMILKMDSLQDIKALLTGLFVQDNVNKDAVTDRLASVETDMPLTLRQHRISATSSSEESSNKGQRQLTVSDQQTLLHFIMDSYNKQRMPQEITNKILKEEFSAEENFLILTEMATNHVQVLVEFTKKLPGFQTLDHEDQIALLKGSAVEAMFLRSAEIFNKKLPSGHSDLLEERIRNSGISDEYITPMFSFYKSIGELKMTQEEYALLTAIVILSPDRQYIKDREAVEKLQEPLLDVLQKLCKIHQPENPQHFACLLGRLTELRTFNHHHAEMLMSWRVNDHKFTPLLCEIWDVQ

With `CC[C@H]1[C@@H](O)[C@@H]2[C@H](CC[C@]3(C)[C@@H]([C@H](C)CCN4CC(C(=O)O)CCC4=O)CC[C@@H]23)[C@@]2(C)CC[C@@H](O)C[C@@H]12` (stereo partly shown) [Example 1], in series [1], the EC50 was found to be 900 nM and the Emax worked out at 320%. Further, in series [2], a half-maximal response (EC50) required 17900 nM and the Emax came out at 134%.
For `CC[C@@H]1C2C[C@H](O)CC[C@]2(C)[C@H]2CC[C@]3(C)[C@@H]([C@H](C)CCn4cc(C(=O)O)cn4)CC[C@H]3[C@@H]2[C@@H]1O` (stereo partly shown) [Example 4], in series [1], the 50% effective concentration (EC50) was 720 nM and the Emax stood at 334%. For the same molecule, in series [2], the EC50 stood at 1870 nM and the Emax came to 131%.
With `CC[C@H]1[C@@H](O)[C@@H]2[C@H](CC[C@]3(C)[C@@H]([C@H](C)CCn4cc(C(=O)O)ccc4=O)CC[C@@H]23)[C@@]2(C)CC[C@@H](O)C[C@@H]12` [Example 5], in series [1], the EC50 was 90 nM and the Emax was found to be 134%. In series [2], the concentration for a half-maximal effect (EC50) came to 570 nM and the Emax came out at 190%.
As to `CC[C@H]1[C@@H](O)[C@@H]2[C@H](CC[C@]3(C)[C@@H]([C@H](C)CCn4ccc(C(=O)O)cc4=O)CC[C@@H]23)[C@@]2(C)CC[C@@H](O)C[C@@H]12` [Example 6], in series [1], the EC50 worked out at 360 nM and the Emax worked out at 375%. For the same molecule, in series [2], it took 5160 nM to reach a half-maximal effect (EC50) and the Emax turned out to be 132%.
On to `CC[C@H]1[C@@H](O)[C@@H]2[C@H](CC[C@]3(C)[C@@H]([C@H](C)CCOc4cccc(C(=O)O)c4)CC[C@@H]23)[C@@]2(C)CC[C@@H](O)C[C@@H]12` [Example 7], for which, in series [1], the EC50 stood at 30 nM and the Emax is 360%. Further, in series [2], the EC50 is 60 nM and the Emax was 140%.
On to `CC[C@H]1[C@@H](O)[C@@H]2[C@H](CC[C@]3(C)[C@@H]([C@H](C)CCOc4cc(C(=O)O)ccn4)CC[C@@H]23)[C@@]2(C)CC[C@@H](O)C[C@@H]12` [Example 9], for which, in series [1], the 50% effective concentration (EC50) turned out to be 160 nM and the Emax is 407%. Also, in series [2], the EC50 amounted to 140 nM and the Emax was 130%.
In the same order, the values of `CC[C@H]1[C@@H](O)[C@@H]2[C@H](CC[C@]3(C)[C@@H]([C@H](C)CCOc4ccc(C(=O)O)nc4)CC[C@@H]23)[C@@]2(C)CC[C@@H](O)C[C@@H]12` [Example 10] are 60 nM, 188%, 200 nM and 138%.
For `CC[C@H]1[C@@H](O)[C@@H]2[C@H](CC[C@]3(C)[C@@H]([C@H](C)CCOc4cncc(C(=O)O)c4)CC[C@@H]23)[C@@]2(C)CC[C@@H](O)C[C@@H]12` [Example 11], in series [1], the EC50 was 30 nM and the Emax was 241%. In series [2], the EC50 is 100 nM and the Emax is 132%. In addition, in series [3], the “drug exposure compared with control compound INT-747” value is recorded as “higher” and the “peak concentration compared with control compound INT-747” value is “higher”. In series [3] (setting [5]), the AUC was 5.17 µM·h, the Cmax amounted to 1430 nM and the time of peak concentration (Tmax) was 2 h.
As to `CC[C@H]1[C@@H](O)[C@@H]2[C@H](CC[C@]3(C)[C@@H]([C@H](C)CCCn4cc(C(=O)O)ccc4=O)CC[C@@H]23)[C@@]2(C)CC[C@@H](O)C[C@@H]12` [Example 17], in series [1], the half-maximal effective concentration (EC50) was 600 nM and the Emax turned out to be 313%. Also, in series [2], it took 2500 nM to reach a half-maximal effect (EC50) and the Emax was found to be 131%.
As to `CC[C@H]1[C@@H](O)[C@@H]2[C@H](CC[C@]3(C)[C@@H]([C@H](C)CCc4cccc(C(=O)O)c4)CC[C@@H]23)[C@@]2(C)CC[C@@H](O)C[C@@H]12` [Example 19], in series [1], the EC50 was found to be 150 nM and the Emax stood at 251%. In addition, in series [2], the concentration giving a half-maximal response (EC50) came to 370 nM and the Emax amounted to 143%.
For `CC[C@H]1[C@@H](O)[C@@H]2[C@H](CC[C@]3(C)[C@@H]([C@H](C)CCOc4ccc(C(=O)O)cn4)CC[C@@H]23)[C@@]2(C)CC[C@@H](O)C[C@@H]12` [Example 22], the Emax in series [1] turned out to be 249%. Moreover, in series [4] (0.5 h), the Concentration in liver is reported as 1959 nM, the Concentration in plasma is given as 83 nM and the “Concentration ratio of liver to plasma” value is reported as 24. In series [4] (3 h), the Concentration in liver amounted to 701 nM, the Concentration in plasma is reported as 45 nM and the “Concentration ratio of liver to plasma” value is reported as 16. In addition, in series [4] (setting [6]), the “drug concentrations in the liver compared with control compound” value was “higher” and the “liver/blood concentration ratios compared with control compound” value is “higher”. In series [3], the “drug exposure compared with control compound INT-747” value is on record as “higher” and the “peak concentration compared with control compound INT-747” value is on record as “close to”. Also, in series [3] (mouse, plasma, male C57BL/6J mice, oral 10 mg/kg vs intravenous 2 mg/kg), the bioavailability amounted to 34%.
Consider `CC[C@H]1[C@@H](O)[C@@H]2[C@H](CC[C@]3(C)[C@@H]([C@H](C)CCOc4ncccc4C(=O)O)CC[C@@H]23)[C@@]2(C)CC[C@@H](O)C[C@@H]12` [Example 26], for which, in series [1], the EC50 is 130 nM and the Emax was found to be 280%. Moreover, in series [4] (0.5 h), the Concentration in liver is 3904 nM, the Concentration in plasma was found to be 387 nM and the “Concentration ratio of liver to plasma” value came out at 10. Also, in series [4] (3 h), the Concentration in liver is reported as 358 nM, the Concentration in plasma is given as 18 nM and the “Concentration ratio of liver to plasma” value is 20. Further, the “drug concentration in the liver compared with control compound” value in series [4] (oral, same dosage, at 0.5 h) was “higher”. In addition, the “liver/blood concentration ratios compared with control compound” value in series [4] (setting [6]) is “higher”.
As for `CC[C@H]1[C@@H](O)[C@@H]2[C@H](CC[C@]3(C)[C@@H]([C@H](C)CCC(=O)O)CC[C@@H]23)[C@@]2(C)CC[C@@H](O)C[C@@H]12` [INT-747, reference compound], in series [4] (0.5 h), the Concentration in liver is on record as 711 nM, the Concentration in plasma is 151 nM and the “Concentration ratio of liver to plasma” value is on record as 5. In addition, in series [4] (3 h), the Concentration in liver was determined as 625 nM, the Concentration in plasma is 63 nM and the “Concentration ratio of liver to plasma” value was determined as 10.

Source of the values: patent US11667667B2, “Steroid derivative FXR agonist” (Chia Tai Tianqing Pharmaceutical Group Co., Ltd., priority 2016, dated 2023).
